We go through one compound from patent publication US20190298664A1, “METHOD AND KIT FOR MYOCARDIAL REPERFUSION, AND METHOD FOR ATTENUATING OR REDUCING MYOCARDIAL REPERFUSION INJURY” (Academia Sinica, priority 2018, published 2019).

Assay [1] has as its target T1, PTP-PEST catalytic domain (Homo sapiens, UniProt Q05209).
T1 construct: PTP PEST Catalytic Domain construct (Amino Acid:1-300) with 6 His tag at N-terminal; 6 His (N, cleaved yes); made in house; host or cells: Sf9 insect cells (Sf9-VECL-01), Bac-to-Bac baculovirus system
T1 sequence (Q05209 1-300): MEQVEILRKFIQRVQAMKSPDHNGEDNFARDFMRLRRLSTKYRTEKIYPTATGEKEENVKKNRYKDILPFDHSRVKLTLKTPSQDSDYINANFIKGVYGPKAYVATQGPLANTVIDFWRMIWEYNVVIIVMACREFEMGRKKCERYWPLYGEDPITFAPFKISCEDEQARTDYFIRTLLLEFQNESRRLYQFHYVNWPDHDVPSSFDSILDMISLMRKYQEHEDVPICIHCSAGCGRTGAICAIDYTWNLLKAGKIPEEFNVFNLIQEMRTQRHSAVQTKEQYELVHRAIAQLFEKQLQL
The assay is described as follows: IC50 kinetic assay: phosphatase activity of purified PTP-PEST catalytic domain with phospho-Paxillin peptide substrate. It is filed as biochemical. The protocol: PTP PEST Catalytic Domain construct (Amino Acid:1-300) with 6 His tag at N-terminal were expressed in insect cell Sf9-VECL-01 Cell line, using Bac-to-Bac Baculovirus expression system. Cells were infected with baculovirus at 27° C. and harvested after 65 hours of infection. Post harvesting cell suspension were centrifuged and pellet was stored at -80° C. To purify the protein, pellet was thawed and then dissolved in lysis buffer containing 50 mM Tris-HCl, 500 mM NaCl, 5% Glycerol, pH-7.5, and protease inhibitor cocktail tablet, EDTA free from Roche. Cell were lysed by TS-series cell disrupter (Constant System Ltd.) then lysate was centrifuged at 20000 RPM for 30 minutes at 4° C. using JA25.5 rotor in an Avanti J-26-XPI Centrifuge. […] After SEC purity of the protein was analyzed by SDS page and quantification was carried out by using NanoDrop Spectrophotometer. […] The absorbance of the reaction was measured at 650 nm by using Tecan Infinite […] instrument. The absorbance value was converted to amount of phosphate produced in reaction based on the standard curve generated from known phosphate concentration. Data generated in the reaction was fitted using nonlinear regression mode and IC50 value were calculated based on the equation function “Log(inhibitor) vs response-variable slope” from Graph Pad Prism 5.0.

Another assay has as its system I/R mice. Nature of the assay: Myocardial infarct size (Evans blue/TTC staining) in I/R mice. The assay is classed as in vivo, mouse. As to conditions: 2 mg/kg IP. The protocol:
We anesthetized the mouse with 5% isoflurane mixed with room air until loss of sensation of pain and then maintained the mouse in anesthesia status with 2% isoflurane mixed with room air through the whole procedure. The mouse's body temperature was maintained at 37° C. by a heating pad. After the mouse was intubated, we provided artificial ventilation to the mouse with a small animal ventilator. Then the chest cavity was opened at the second intercostal space and homemade chest retractors were utilized to widen the incision. We pulled the pericardium apart carefully and exposed the left anterior descending artery (LAD). A 7-0 silk was put underneath the LAD at the position of the tip of the left auricle, a 6 mm length of PE-10 tube was put on the surface of the LAD, and then a double knot was made to occlude the blood flow of LAD. The success of ligation was confirmed by paling the anterior wall of the LV. For the reperfusion group, the LAD knot would be untied for the purpose of reperfusion after 1 hour of ischemia. For the sham operation group, all procedures were the same except for the knot that occluded the LAD flow. After the successful procedure, we left the silk in situ, closed the chest cavity and weaned the animal from the ventilator.
At the end of experiment, the animal was sacrificed. We opened the chest cavity and exposed the heart and aorta. The heart was perfused with 0.9% saline from the apex until the coronary vessels and myocardium turning into pale color. After saline perfusion, the LAD knot was tied again. 1 mL of 1% Evans blue dye was delivered into the heart through the aortic root by retrograde injection. The dye uniformly perfused the whole heart except in the area of the heart previously perfused by the occluded coronary artery (area at risk, AAR). Then the heart was quickly removed, washed in ice-cold 0.9% saline followed by frozen at −20° C. for 20 minutes, then cut into slices of 1 mm with heart matrix. […] The areas stained with Evans blue negative but TTC-positive (AAR), and TTC-negative area (infarct area) were all measured digitally by ImageJ software. […]

The structures appear in SMILES notation. pIC50: −log10 of the molar value. Where two headings read alike, the source gives them in different places.

One may read the pIC50 as the negative decadic logarithm of the IC50, by convention in mol/L. Turning to `CC(=O)OC[C@H]1O[C@@H]([S-])[C@H](OC(C)=O)[C@@H](OC(C)=O)[C@@H]1OC(C)=O.CCP(CC)CC.[Au+]` [Auranofin, auranofin], the pIC50 in assay [1] (read-out: IC50 of the auranofin to the PTP-PEST, as restated in the summary) is 4.41; in assay [1] (synthetic phospho-Paxillin peptide as substrate, 25 nM protein, 50 μM peptide, 30° C., 30 min, read-out: IC50 on enzymatic activity of purified PTP-PEST), 4.41. Besides, the Infarct size result in the assay with I/R mice (four hours after reperfusion, versus vehicle-only controls) is given as “significantly decreased”; with I/R mice (one day after reperfusion), “smaller”.
